Assays:
Experiment in all cases: radiometric filter-binding kinase assay
LCK (human) = LCK (human) (UniProt P06239); conditions: ATP 100 µM; for residual activity: compound 10.0 µM
CSK (human) = CSK (human) (UniProt P41240); conditions: compound 10.0 µM; ATP 100 µM
MAP2K1 (rabbit) = conditions: compound 10.0 µM; ATP 100 µM; accession and sequence are those of the human protein
MAPKAPK2 (human) = MAPKAPK2 (human) (UniProt P49137); conditions: compound 10.0 µM; ATP 100 µM
MAPK14 (human) = MAPK14 (human) (UniProt Q16539); conditions: compound 10.0 µM; ATP 100 µM
CHEK1 (human) = CHEK1 (human) (UniProt O14757); conditions: compound 10.0 µM; ATP 100 µM
MAPKAPK5 (human) = MAPKAPK5 (human) (UniProt Q8IW41); conditions: ATP 100 µM; for residual activity: compound 10.0 µM
MAPK1 (mouse) = conditions: compound 10.0 µM; ATP 100 µM; accession and sequence are those of the human protein
[1] = molecular target: CSNK2A1 or CSNK2A2 (human) (UniProt P19784+P68400); conditions: compound 10.0 µM; ATP 100 µM
GSK3B (human) = GSK3B (human) (UniProt P49841); conditions: compound 10.0 µM; ATP 100 µM
MAPK13 (human) = MAPK13 (human) (UniProt O15264); conditions: compound 10.0 µM; ATP 100 µM
PHKG1 or PHKG2 (rabbit) = conditions: compound 10.0 µM; ATP 100 µM; accession and sequence are those of the human protein
MAPK12 (human) = MAPK12 (human) (UniProt P53778); conditions: compound 10.0 µM; ATP 100 µM
RPS6KA1 (rat) = conditions: compound 10.0 µM; ATP 100 µM; accession and sequence are those of the human protein
ROCK2 (rat) = conditions: compound 10.0 µM; ATP 100 µM; accession and sequence are those of the human protein
MAPK11 (human) = MAPK11 (human) (UniProt Q15759); conditions: compound 10.0 µM; ATP 100 µM
[2] = system: SGK1 (human), O00141 [S422D]; conditions: ATP 100 µM; for residual activity: compound 10.0 µM
RPS6KA5 KD1 KD2 (human) = RPS6KA5 KD1 KD2 (human) (UniProt O75582); conditions: compound 10.0 µM; ATP 100 µM
CDK2 CCNA2 (human) = CDK2 CCNA2 (human) (UniProt P24941+P20248); conditions: for residual activity: compound 10.0 µM, ATP 100 µM
DYRK1A (rat) = conditions: ATP 100 µM, accession and sequence are those of the human protein; for residual activity: compound 10.0 µM
PDPK1 (human) = PDPK1 (human) (UniProt O15530); conditions: compound 10.0 µM; ATP 100 µM
AKT1 (human) = AKT1 (human) (UniProt P31749); conditions: compound 10.0 µM; ATP 100 µM
MAPK8 (human) = MAPK8 (human) (UniProt P45983); conditions: compound 10.0 µM; ATP 100 µM
[3] = system: RPS6KB1 (human), P23443 [T412E]; conditions: compound 10.0 µM; ATP 100 µM
PRKAA1 or PRKAA2 (rat) = conditions: ATP 100 µM, accession and sequence are those of the human protein; for residual activity: compound 10.0 µM
CSNK1A1 (rat) = conditions: compound 10.0 µM; ATP 100 µM; accession and sequence are those of the human protein
PRKACA or PRKACB (cow) = conditions: compound 10.0 µM; accession and sequence are those of the human protein
RPS6KA1 (human) = RPS6KA1 (human) (UniProt Q15418); conditions: ATP 100 µM
PRKCA (human) = PRKCA (human) (UniProt P17252); conditions: compound 10.0 µM; ATP 100 µM

Sequence of GSK3B (human) (P49841 whole entry, looked up): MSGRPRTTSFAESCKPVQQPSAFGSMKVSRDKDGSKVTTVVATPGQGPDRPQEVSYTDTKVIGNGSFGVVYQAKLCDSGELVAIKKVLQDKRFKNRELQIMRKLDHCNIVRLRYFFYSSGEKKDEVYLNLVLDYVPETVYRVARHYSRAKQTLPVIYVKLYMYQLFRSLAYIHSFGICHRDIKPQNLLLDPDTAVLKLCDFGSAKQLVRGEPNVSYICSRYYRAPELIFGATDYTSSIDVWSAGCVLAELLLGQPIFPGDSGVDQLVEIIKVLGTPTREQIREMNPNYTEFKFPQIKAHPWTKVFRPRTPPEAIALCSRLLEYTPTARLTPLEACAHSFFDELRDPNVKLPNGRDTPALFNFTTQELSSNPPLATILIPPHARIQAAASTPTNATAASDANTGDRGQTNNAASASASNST
Sequence of MAPKAPK5 (human) (Q8IW41 whole entry, looked up): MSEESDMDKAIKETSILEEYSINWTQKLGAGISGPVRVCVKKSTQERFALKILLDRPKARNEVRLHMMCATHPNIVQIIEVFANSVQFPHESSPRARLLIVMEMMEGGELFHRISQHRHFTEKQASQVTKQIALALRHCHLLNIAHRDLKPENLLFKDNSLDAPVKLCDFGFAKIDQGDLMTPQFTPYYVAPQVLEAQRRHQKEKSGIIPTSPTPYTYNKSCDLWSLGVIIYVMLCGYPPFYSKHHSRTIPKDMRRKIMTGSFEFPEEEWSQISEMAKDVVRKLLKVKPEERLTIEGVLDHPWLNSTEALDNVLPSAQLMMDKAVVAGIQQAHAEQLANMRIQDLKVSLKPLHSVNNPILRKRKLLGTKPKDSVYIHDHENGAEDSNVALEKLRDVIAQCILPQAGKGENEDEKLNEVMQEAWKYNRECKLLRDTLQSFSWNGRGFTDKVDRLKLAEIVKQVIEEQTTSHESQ
Sequence of CSK (human) (P41240 whole entry, looked up): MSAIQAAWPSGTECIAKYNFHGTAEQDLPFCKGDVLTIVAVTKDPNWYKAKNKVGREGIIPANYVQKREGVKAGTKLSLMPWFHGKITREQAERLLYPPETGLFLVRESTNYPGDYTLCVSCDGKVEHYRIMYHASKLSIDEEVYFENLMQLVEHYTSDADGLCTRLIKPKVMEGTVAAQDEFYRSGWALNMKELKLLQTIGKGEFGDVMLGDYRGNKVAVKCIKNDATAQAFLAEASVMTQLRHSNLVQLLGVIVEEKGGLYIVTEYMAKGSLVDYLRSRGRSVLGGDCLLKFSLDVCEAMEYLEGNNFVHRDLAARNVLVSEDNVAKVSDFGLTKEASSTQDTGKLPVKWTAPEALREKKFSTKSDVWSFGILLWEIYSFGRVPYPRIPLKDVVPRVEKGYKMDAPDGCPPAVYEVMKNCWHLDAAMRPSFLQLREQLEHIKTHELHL
Sequence of RPS6KA5 KD1 KD2 (human) (O75582 whole entry, looked up): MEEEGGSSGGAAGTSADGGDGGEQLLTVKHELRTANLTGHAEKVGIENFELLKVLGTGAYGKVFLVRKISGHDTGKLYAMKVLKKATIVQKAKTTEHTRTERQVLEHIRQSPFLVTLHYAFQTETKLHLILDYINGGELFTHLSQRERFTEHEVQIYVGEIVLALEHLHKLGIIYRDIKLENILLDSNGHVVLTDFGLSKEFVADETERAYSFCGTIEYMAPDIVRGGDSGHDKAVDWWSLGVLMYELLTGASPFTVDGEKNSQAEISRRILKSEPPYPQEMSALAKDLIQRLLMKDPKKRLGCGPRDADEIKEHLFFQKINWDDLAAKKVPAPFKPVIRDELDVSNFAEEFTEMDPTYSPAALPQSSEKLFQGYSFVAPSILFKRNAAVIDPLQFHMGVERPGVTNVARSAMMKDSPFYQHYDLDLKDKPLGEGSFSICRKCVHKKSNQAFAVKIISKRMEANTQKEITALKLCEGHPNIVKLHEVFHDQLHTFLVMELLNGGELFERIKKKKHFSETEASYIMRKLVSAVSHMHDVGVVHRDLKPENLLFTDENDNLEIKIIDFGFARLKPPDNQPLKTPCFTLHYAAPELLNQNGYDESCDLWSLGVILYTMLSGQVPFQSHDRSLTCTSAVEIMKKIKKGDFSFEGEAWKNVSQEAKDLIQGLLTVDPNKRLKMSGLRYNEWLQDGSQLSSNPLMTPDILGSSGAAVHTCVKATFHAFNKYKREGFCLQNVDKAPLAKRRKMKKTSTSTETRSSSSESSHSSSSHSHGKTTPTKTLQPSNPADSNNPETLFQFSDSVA
Sequence of MAPK13 (human) (O15264 whole entry, looked up): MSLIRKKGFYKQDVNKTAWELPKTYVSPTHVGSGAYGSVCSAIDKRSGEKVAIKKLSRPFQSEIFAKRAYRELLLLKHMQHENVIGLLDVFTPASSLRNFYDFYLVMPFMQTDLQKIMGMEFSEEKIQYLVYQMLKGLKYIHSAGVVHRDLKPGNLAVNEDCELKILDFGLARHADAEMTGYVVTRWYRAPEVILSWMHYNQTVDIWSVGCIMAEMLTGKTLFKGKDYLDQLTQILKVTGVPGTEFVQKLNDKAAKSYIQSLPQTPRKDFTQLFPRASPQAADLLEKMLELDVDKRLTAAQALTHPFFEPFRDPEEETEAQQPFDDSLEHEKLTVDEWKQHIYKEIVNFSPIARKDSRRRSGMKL
Sequence of MAPK14 (human) (Q16539 whole entry, looked up): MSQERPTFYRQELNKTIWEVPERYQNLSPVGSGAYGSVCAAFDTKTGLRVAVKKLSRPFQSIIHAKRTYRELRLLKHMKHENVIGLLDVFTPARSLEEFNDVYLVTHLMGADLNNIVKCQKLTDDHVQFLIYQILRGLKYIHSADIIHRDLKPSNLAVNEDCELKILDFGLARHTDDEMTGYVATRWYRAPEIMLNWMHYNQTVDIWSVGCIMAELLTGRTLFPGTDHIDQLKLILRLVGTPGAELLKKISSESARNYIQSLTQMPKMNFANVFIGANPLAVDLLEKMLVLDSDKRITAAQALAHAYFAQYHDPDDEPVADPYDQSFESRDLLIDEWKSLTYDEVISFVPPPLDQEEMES
Sequence of MAPKAPK2 (human) (P49137 whole entry, looked up): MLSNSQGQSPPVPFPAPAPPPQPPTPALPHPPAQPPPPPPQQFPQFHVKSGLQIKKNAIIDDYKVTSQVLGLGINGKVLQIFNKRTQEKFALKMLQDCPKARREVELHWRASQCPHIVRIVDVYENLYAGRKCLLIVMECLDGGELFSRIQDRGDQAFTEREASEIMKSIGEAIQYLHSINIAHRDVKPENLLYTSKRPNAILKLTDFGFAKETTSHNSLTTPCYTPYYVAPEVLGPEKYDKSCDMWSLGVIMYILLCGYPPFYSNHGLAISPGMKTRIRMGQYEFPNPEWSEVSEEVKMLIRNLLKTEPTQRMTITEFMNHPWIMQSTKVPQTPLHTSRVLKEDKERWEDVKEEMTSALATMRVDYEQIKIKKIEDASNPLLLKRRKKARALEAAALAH
Sequence of RPS6KB1 (human), P23443 [T412E] (P23443 whole entry T412E, looked up): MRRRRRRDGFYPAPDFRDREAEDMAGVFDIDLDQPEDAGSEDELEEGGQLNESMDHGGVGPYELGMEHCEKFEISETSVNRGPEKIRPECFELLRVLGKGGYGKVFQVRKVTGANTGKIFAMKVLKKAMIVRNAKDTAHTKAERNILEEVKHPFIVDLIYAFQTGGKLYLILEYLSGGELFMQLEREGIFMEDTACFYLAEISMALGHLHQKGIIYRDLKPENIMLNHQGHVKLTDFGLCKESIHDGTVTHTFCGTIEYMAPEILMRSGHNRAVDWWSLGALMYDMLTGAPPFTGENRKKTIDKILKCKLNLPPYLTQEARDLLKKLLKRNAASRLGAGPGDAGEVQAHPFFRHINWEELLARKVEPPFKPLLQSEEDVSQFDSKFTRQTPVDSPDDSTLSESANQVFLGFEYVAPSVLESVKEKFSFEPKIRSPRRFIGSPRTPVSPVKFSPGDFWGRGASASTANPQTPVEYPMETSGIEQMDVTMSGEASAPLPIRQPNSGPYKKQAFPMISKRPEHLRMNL
Sequence of MAPK12 (human) (P53778 whole entry, looked up): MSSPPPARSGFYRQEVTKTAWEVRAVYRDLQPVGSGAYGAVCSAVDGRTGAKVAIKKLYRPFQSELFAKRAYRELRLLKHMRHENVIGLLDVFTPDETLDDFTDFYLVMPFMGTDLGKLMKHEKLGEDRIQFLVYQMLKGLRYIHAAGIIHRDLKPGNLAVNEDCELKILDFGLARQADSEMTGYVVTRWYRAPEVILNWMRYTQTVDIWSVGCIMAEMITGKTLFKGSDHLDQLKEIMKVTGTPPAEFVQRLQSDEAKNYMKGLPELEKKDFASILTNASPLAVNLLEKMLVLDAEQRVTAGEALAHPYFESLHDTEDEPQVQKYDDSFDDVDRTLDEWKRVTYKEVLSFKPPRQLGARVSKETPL
Sequence of MAPK8 (human) (P45983 whole entry, looked up): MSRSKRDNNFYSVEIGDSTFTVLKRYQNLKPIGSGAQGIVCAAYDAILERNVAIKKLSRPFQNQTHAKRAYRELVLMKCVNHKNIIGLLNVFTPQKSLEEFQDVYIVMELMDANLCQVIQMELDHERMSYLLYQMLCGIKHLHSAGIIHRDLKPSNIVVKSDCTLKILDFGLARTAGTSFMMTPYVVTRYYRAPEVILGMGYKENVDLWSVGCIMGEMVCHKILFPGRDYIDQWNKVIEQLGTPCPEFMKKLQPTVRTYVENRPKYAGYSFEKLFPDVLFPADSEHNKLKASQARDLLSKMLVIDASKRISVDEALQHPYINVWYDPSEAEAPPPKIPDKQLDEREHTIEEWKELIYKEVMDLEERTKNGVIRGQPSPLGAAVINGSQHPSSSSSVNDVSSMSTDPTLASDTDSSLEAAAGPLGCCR
Sequence of MAPK11 (human) (Q15759 whole entry, looked up): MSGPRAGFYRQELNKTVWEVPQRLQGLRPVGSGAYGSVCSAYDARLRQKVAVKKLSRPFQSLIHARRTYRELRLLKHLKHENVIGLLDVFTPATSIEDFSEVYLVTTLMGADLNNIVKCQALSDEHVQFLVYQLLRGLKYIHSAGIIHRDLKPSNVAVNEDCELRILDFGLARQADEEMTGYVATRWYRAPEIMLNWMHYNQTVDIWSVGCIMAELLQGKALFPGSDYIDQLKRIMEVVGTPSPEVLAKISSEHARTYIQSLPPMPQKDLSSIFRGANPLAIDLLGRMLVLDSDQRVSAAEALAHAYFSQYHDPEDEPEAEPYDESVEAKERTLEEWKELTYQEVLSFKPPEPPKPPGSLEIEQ

SMILES | residual activity (LCK (human)) [%] | residual activity (CSK (human)) [%] | residual activity (MAP2K1 (rabbit)) [%] | residual activity (MAPKAPK2 (human)) [%] | residual activity (MAPK14 (human)) [%] | residual activity (CHEK1 (human)) [%] | residual activity (MAPKAPK5 (human)) [%] | residual activity (MAPK1 (mouse)) [%] | residual activity [1] [%] | residual activity (GSK3B (human)) [%] | residual activity (MAPK13 (human)) [%] | residual activity (PHKG1 or PHKG2 (rabbit)) [%] | residual activity (MAPK12 (human)) [%] | residual activity (RPS6KA1 (rat)) [%] | residual activity (ROCK2 (rat)) [%] | residual activity (MAPK11 (human)) [%] | residual activity [2] [%] | residual activity (RPS6KA5 KD1 KD2 (human)) [%] | residual activity (CDK2 CCNA2 (human)) [%] | residual activity (DYRK1A (rat)) [%] | other results
CC(C)[C@H](CO)Nc1nc(Nc2cccc(Cl)c2)c2ncn(C(C)C)c2n1 | 22 | 20 | 80 | 97 | 101 | 78 | 76 | 26 | 95 | 84 | 98 | 36 | 105 | 15 | 57 | 117 | 91 | 88 | 2 | 6 | IC50 (DYRK1A (rat)): 0.3 µM; residual activity (PDPK1 (human)): 103%; residual activity (AKT1 (human)): 88%; residual activity (MAPK8 (human)): 84%; residual activity [3]: 79%; residual activity (PRKAA1 or PRKAA2 (rat)): 59%; residual activity (CSNK1A1 (rat)): 75%; residual activity (PRKACA or PRKACB (cow)): 82%; IC50 (RPS6KA1 (human)): 1.49 µM
O=C(O[C@@H]1Cc2c(O)cc(O)cc2O[C@@H]1c1cc(O)c(O)c(O)c1)c1cc(O)c(O)c(O)c1 | 89 | 76 | 94 | 79 | 105 | 79 | 10 | 53 | 105 | 78 | 60 | 78 | 85 | 109 | 53 | 87 | 104 | 88 | 97 | 9 | IC50 (MAPKAPK5 (human)): 1 µM; IC50 (DYRK1A (rat)): 0.33 µM; residual activity (PDPK1 (human)): 50%; residual activity (AKT1 (human)): 87%; residual activity (MAPK8 (human)): 76%; residual activity [3]: 87%; residual activity (PRKAA1 or PRKAA2 (rat)): 101%; residual activity (CSNK1A1 (rat)): 105%; residual activity (PRKCA (human)): 76%; residual activity (PRKACA or PRKACB (cow)): 109%
O=C1Nc2ccccc2/C1=C1\Nc2ccccc2\C1=N/O | 11 | 105 | 94 | 69 | 83 | 38 | 38 | 104 | 82 | 6 | 65 | 102 | 74 | 20 | 15 | 45 | 9 | 40 | 18 | 62 | IC50 (LCK (human)): 0.3 µM; IC50 [2]: 0.38 µM; IC50 (CDK2 CCNA2 (human)): 0.59 µM; residual activity (PDPK1 (human)): 27%; residual activity (AKT1 (human)): 62%; residual activity (MAPK8 (human)): 21%; residual activity [3]: 20%; IC50 (PRKAA1 or PRKAA2 (rat)): 0.22 µM; residual activity (PRKAA1 or PRKAA2 (rat)): 6%; residual activity (CSNK1A1 (rat)): 38%; residual activity (PRKCA (human)): 68%; residual activity (PRKACA or PRKACB (cow)): 80%
